Values of other authors as cited in patent publication US12090222B2, “Method for dyeing keratin material, comprising the use of an organosilicon compound, two dyeing compounds and a post-treatment agent” (Henkel AG & Co. KGaA, priority 2020, dated 2024).

Conditions: 25° C.

solubility in water (in words) | Compound | solubility in water
 | O=S(=O)([O-])c1ccc(N=Nc2c(O)ccc3ccccc23)cc1.[Na+] [Acid Orange 7, sodium salt of 4-[(2-hydroxy-1-naphthyl)azo]benzene sulphonate] | more than 7 g/L
 | Nc1cc(S(=O)(=O)[O-])cc2cc(S(=O)(=O)[O-])c(N=Nc3ccccc3)c(O)c12.[Na+].[Na+] [Acid Red 33, disodium salt of 5-amino-4-hydroxy-3-(phenylazo)-naphthalene-2,7-disulphonate] | about 2.5 g/L
 | O=C([O-])c1c(Cl)c(Cl)c(Cl)c(Cl)c1-c1c2c(Br)cc(=O)c(Br)c-2oc2c(Br)c(O)cc(Br)c12.O=C([O-])c1c(Cl)c(Cl)c(Cl)c(Cl)c1-c1c2c(Br)cc(=O)c(Br)c-2oc2c(Br)c(O)cc(Br)c12.[Na+].[Na+] [Acid Red 92, disodium salt of 3,4,5,6-tetrachloro-2-(1,4,5,8-tetrabromo-6-hydroxy-3-oxoxanthen-9-yl)benzoic acid] | greater than 10 g/L
highly soluble | O=C([O-])C1=NN(c2ccc(S(=O)(=O)[O-])cc2)C(=O)C1N=Nc1ccc(S(=O)(=O)[O-])cc1.[Na+].[Na+].[Na+] (centres unmarked) [Acid Yellow 23, trisodium salt of 4,5-dihydro-5-oxo-1-(4-sulfophenyl)-4-((4-sulfophenyl)azo)-1H-pyrazole-3-carboxylic acid] | 
 | mixture of the sodium salts of mono- and disulfonic acids of 2-(2-quinolyl)-1H-indene-1,3(2H)-dione [Acid Yellow 3] | about 20 g/L
